Read-outs that look alike come from different tables or passages of the source. One block for each compound: values may come before it.
Assays:
[1] = biological target: T1, human islet amyloid polypeptide (Homo sapiens, UniProt P10997); details: cited from earlier work
T1 sequence (P10997 34-70 limits assumed): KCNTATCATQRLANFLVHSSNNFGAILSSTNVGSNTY

tau = tau (Homo sapiens, UniProt P10636); assay: Screening compounds for inhibition of RNA-facilitated tau oligomer formation (modified ELISA); format: biochemical; details: incubations with RQ11+12 RNA polyanion; FIG. 14
Procedure: RNA polyanion was used to facilitate oligomer formation of tau protein in vitro using the following, preferred, conditions: 20 pmoles of tau412 was reacted with 4 pmoles of a 197 base RNA, i.e., RQ11+12, in 50 mM Tris-HCl buffer at pH of 7.4 and incubated for 1 hour at 37° C. […] The 5:1 ratio was optimal for the RNA RQT157 as well (FIG. 15). […] The kinetics of oligomer formation was rapid. […] Physiological pH and temperature were used in the assay to simulate biological conditions.
Formation of tau oligomers was analyzed using two different ELISA methods to provide verified data. The “modified” ELISA uses the same monoclonal antibody for capture and detection. Insoluble aggregates are removed in the ELISA procedure during washing steps. Only soluble aggregates of tau, not monomers, are detected with this ELISA because the detection and reporter antibody recognizes an epitope which is present only once within tau. At least one more tau molecule must be present in the complex for detection with the same antibody (method illustrated in FIG. 7). The modified ELISA used is similar to the modified ELISA previously used for identification of Aβ oligomers (Sian et al., Biochem. J. 349(Pt 1):299-308 2000)) and PrP oligomers (Vasan et al., Neurochem Res 31(5):629-37(2006)). […]

tau412 = tau412 (Homo sapiens, UniProt P10636); assay: Polyanion-facilitated tau412 oligomer formation detected by ELISA (modified, A11, DC11); format: biochemical; details: for facilitation of tau412 oligomer formation by heparin or DNA: modified ELISA, FIGS. 13 and 16
Procedure: The 5:1 ratio was optimal for the RNA RQT157 as well (FIG. 15). […] The kinetics of oligomer formation was rapid. […] Physiological pH and temperature were used in the assay to simulate biological conditions. Formation of tau oligomers was analyzed using two different ELISA methods to provide verified data. The “modified” ELISA uses the same monoclonal antibody for capture and detection. Insoluble aggregates are removed in the ELISA procedure during washing steps. Only soluble aggregates of tau, not monomers, are detected with this ELISA because the detection and reporter antibody recognizes an epitope which is present only once within tau. At least one more tau molecule must be present in the complex for detection with the same antibody (method illustrated in FIG. 7). The modified ELISA used is similar to the modified ELISA previously used for identification of Aβ oligomers (Sian et al., Biochem. J. 349(Pt 1):299-308 2000)) and PrP oligomers (Vasan et al., Neurochem Res 31(5):629-37(2006)). This assay used antibody MN1000, recognizing tau epitope amino acids 159-163, for capture and biotinylated MN1000 as reporter. […] The second ELISA method to detect oligomers is based on polyclonal antibody A11 which recognizes a common structure in soluble amyloid oligomers (FIGS. 8-10, and 12). (Kayed et al., Science 300: 486-491(2003)). […] This assay was used to optimize the molar ratio of tau:RNA for oligomer formation (FIGS. 8 and 15), follow oligomer formation over time (FIG. 10), show tau oligomer formation with a range of RNAs (FIG. 12), and detect soluble tau oligomers in CSF (FIG. 11). A third ELISA was used to show biological relevance of the tau oligomers formed in this assay to tau in AD and is based on monoclonal antibodies DC11 used for capture and biotinylated MN1000 for reporter. The antibody DC11 recognizes a conformational epitope in tau specific for AD (Vechterova et al., Neuroreport 1:87-91 (2003)). […] Oligomer formation was determined by modified ELISA (described above). […]

Sequence of tau412 (P10636 1-412 isoform P10636-7): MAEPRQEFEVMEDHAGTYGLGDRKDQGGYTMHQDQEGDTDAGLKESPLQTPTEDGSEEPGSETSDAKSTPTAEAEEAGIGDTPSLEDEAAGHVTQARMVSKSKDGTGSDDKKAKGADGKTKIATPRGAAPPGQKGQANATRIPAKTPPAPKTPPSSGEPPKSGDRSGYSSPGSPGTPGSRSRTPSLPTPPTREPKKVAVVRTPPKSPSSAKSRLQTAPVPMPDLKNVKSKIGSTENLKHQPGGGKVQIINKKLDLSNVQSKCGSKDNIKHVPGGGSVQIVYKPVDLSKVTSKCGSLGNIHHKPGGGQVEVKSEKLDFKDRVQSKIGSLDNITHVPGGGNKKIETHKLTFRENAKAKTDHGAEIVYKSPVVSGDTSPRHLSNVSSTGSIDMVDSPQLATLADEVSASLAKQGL
Sequence of tau (P10636 1-412 isoform P10636-7): as above

Compound: Cc1ccc(C(=O)Nc2ccc(S(=O)(=O)O)c3cc(S(=O)(=O)O)cc(S(=O)(=O)O)c23)cc1NC(=O)c1cccc(NC(=O)Nc2cccc(C(=O)Nc3cc(C(=O)Nc4ccc(S(=O)(=O)O)c5cc(S(=O)(=O)O)cc(S(=O)(=O)O)c45)ccc3C)c2)c1 [Suramin]
- effect on amyloid fibril formation ([1]; at high concentrations): stimulated the process
- effect on amyloid fibril formation ([1]; at low concentrations): inhibited amyloid fibril formation

Compound: Heparin
- facilitation of tau412 oligomer formation by heparin or DNA (tau412): effective in facilitating tau oligomer formation

Compound: Polydeoxythymidine
- facilitation of tau412 oligomer formation by heparin or DNA (tau412): enhanced tau412 oligomer formation

Further lines, results first:

- inhibition of RNA-facilitated tau oligomer formation (tau): inhibition
Compound: COc1cc(/C=C/C(=O)CC(=O)/C=C/c2ccc(O)c(OC)c2)ccc1O [curcumin]

- facilitation of tau oligomer formation by RNA (tau412; 5:1 tau:RNA ratio, detected with A11 Ab, FIG. 12): facilitated tau oligomer formation
Compound: polyA
